Laboratory results published in ChEMBL document CHEMBL3507680, “University of Dundee, Gates Library screen for HepG2 cell viability”.

Assay: Human HepG2 cell viability assay in 384 well format
Type: toxicity, cell-based
Design: dose 125 nL, time 70.5 hour; cytotoxicity at 70.5 h: concentration not given beside the values
Settings: HepG2 cells, read-out: Inhibition

Compound | cytotoxicity at 70.5 h [%]
CCCn1cnc2c1CN(C(=O)c1ccc(F)cc1)[C@H](C(=O)OC)C2 | -7.42
CCCn1cnc2c1CN(S(=O)(=O)c1ccc(F)cc1)[C@H](C(=O)OC)C2 | 12.5
CC[C@H]1CN2CC[C@H]1C[C@@H]2CNCc1ccc(N(C)C)cc1 | 26.4
CN1CCN(C[C@H]2CN3CC[C@H]2C[C@@H]3CNC(=O)c2ccco2)CC1 | -6.36
CN1CCC(N2CCC[C@H]2c2nc(-c3cncnc3N)no2)CC1 | -0.402
CC1=C[C@@H](CN2CCC(O)CC2)[C@H](C(C)C)C[C@H]1Cc1nnc(C)o1 | -4.6
CCS(=O)(=O)c1ccc2oc([C@H]3CCN(Cc4cccnc4)C3)nc2c1 | 9.25
CN(C)c1ccc(-c2nnc([C@H]3CCN(C4CCCCC4)C3)o2)cc1 | -4.32
COCC(=O)Nc1ccc([C@@H](O)[C@H]2COCC(=O)N2CC(C)C)cc1 | 8.86
CC(C)(C)c1cc(C[C@H]2CNCC[C@H]2CC(=O)NC2CCCCC2)no1 | 2.18
CC(C)N1C[C@H](O)C[C@H]1c1nc(-c2ccc(OC(F)(F)F)cc2)no1 | -3.17
O=C(NC[C@H]1OC[C@@H](NC2CCC(F)(F)CC2)[C@@H]1O)C1CCCC1 | -10.5
CC(C)N[C@@H]1CO[C@H](CNC(=O)c2ccccc2)[C@H]1O | -0.106
O=C(NC[C@H]1OC[C@@H](NCc2ccccn2)[C@@H]1O)c1ccc(F)cc1 | 2.33
Cc1ccc(S(=O)(=O)NC[C@H]2OC[C@@H](NCc3ccccn3)[C@@H]2O)cc1 | -6.39
CC(C)Cc1cc(CC2(NCc3ccccc3Cl)COC2)no1 | 4.27
CC(C)CNC[C@H]1O[C@H](Cc2cc(-c3ccccn3)on2)CC[C@@H]1O | 0.841
COCCN1C[C@H]2CN(C(=O)c3ccno3)CCN2C1=O | -6.26
O[C@H]1COCCN(Cc2cccc(C(F)(F)F)c2)C1 | -9.83
COCC(=O)NC[C@H]1OC[C@@H](NC2CCC(F)(F)CC2)[C@@H]1O | -8.37
CC[C@H]1CN(S(=O)(=O)c2ccccc2)CC[C@H]1CC(=O)O | 5.41
O=C([C@@H]1Cc2[nH]cnc2CN1C(=O)NC1CCCCC1)N1CCCC1 | -7.01
CC(=O)NC[C@@H]1C=C(C)[C@H](CC(=O)NCc2cccnc2)C[C@H]1C(C)C | 4.62
Fc1ccc(-c2c[nH]c([C@@H]3COCCN3)n2)cc1 | -9.31
CN1CCOC[C@H]1c1nc(-c2ccncc2)c[nH]1 | 1.37
O=C(NC[C@H]1OC[C@@H](NCc2ccccc2)[C@@H]1O)Nc1ccccc1 | -3.94
CC(=O)N1CC[C@H]2NC(=O)N(Cc3ccccc3)C(=O)[C@H]21 | -1.45

Compound | cytotoxicity at 70.5 h [%]
Nc1ncncc1-c1noc([C@@H]2CCCN2CCCc2ccccc2)n1 | -6.26
CC(=O)N[C@H]1CCN2C(=O)[C@@H](Cc3c[nH]c4ccccc34)NC(=O)[C@H]12 | -13.3
Cc1cccc(-c2noc([C@@H]3C[C@@H](O)CN3Cc3ccc(CO)o3)n2)c1 | 0.167
COCc1cc(C[C@@H]2CC[C@H](O)[C@@H](CN(C)C)O2)no1 | -0.737
Cc1ccc(CN2C[C@H]3CN(Cc4ccccc4Cl)CCN3C2=O)cc1 | -9.42
CC(C)(C)CN1CCN2C(=O)N(C3CCCCC3)C[C@H]2C1 | -11.1
CC(C)(C)CN[C@@H]1CO[C@H](CNC(=O)C2CCCC2)[C@H]1O | -14
Cc1ccc(CNC2(Cc3cc(CO)on3)COC2)o1 | -1.63
CC(C)(C)CNC[C@H]1Cn2ccnc2CO1 | -4.98
O=C(CN1C(=O)CCC1=O)NCc1cc(C2CC2)n(C2CCCC2)n1 | -2.61
Cn1cnnc1S(=O)(=O)C1CCN(S(=O)(=O)c2ccc(Cl)s2)CC1 | 11.9
Cc1c(Cl)cccc1S(=O)(=O)N1CCC(S(=O)(=O)c2nncn2C)CC1 | 1.44
CNC(=O)CS(=O)(=O)C1CCN(S(=O)(=O)c2ccccc2Cl)CC1 | 23.7
CNC(=O)CS(=O)(=O)C1CCN(S(=O)(=O)c2cccc(C(C)=O)c2)CC1 | -6.78
Cc1csc(C(=O)N2CC(S(=O)(=O)C3CCCCC3)C2)c1 | -6.45
O=C(c1cnccn1)N1CC(S(=O)(=O)c2ccc(Cl)cc2)C1 | -4.33
Cc1cc(S(=O)(=O)N2CCC(N3CCC(O)C3)CC2)c(Cl)cc1Cl (stereo not given) | -4.51
O=C(Cc1cccs1)Nc1cnn(C2CCOC2)c1 (stereo not given) | 40.6
N#Cc1ccc(S(=O)(=O)Nc2cnn(C3CCOCC3)c2)cc1 | -1.54
O=C(O)c1cc(S(=O)(=O)Nc2cnn(C3CCOCC3)c2)ccc1F | -6.44
COC(CNC(=O)C1CC1)c1ccc(C)s1 (stereo not given) | 19.1
COC(CNC(=O)C1CCN(S(C)(=O)=O)CC1)c1ccc(C)s1 (stereo not given) | -12
COC(C)(CNS(=O)(=O)c1cccnc1)c1ccccc1F (stereo not given) | -18.1
COC(C)(CNS(=O)(=O)c1cnn(C)c1)c1ccccc1F (stereo not given) | -0.155
CCC(CNC(=O)C1CC1)(OC)c1ccccc1 (stereo not given) | 8.11
CCOCC(=O)NCC(CC)(OC)c1ccccc1 (stereo not given) | -12.4
O=C(NCc1cccs1)C1CCCN(c2cc(-n3cncn3)ncn2)C1 (stereo not given) | -3.14

Compound | cytotoxicity at 70.5 h [%]
O=C(C1CC1)N1CCN(c2ccc(-n3cncn3)nn2)CC1 | -3.85
Cc1ccccc1C(=O)N1CCN(c2ccc(-n3cncn3)nn2)CC1 | -4.18
Nc1cccnc1N1CCC(C(F)(F)F)CC1 | 14.9
Cc1cncc(Oc2ccc(CN)cc2)n1 | -10.6
Cc1cncc(Oc2ccc(CO)cc2)n1 | -5.95
O=C(CC1CC1)N1CCC2(CC1)C(=O)NCCN2Cc1ccccc1 | 10.6
CCN1C(=O)C[C@@H]2[C@@H]1CCN2S(=O)(=O)c1ccc(OC)cc1 | 9.29
Cc1ccccc1CNC(=O)N1CC[C@@H]2CN(C)S(=O)(=O)[C@@H]2CC1 | 17.8
Cc1cc(C(=O)N[C@H]2CC[C@@]3(CCC(=O)N3CC3CC3)CC2)no1 | -15.5
O=C1CCC2(CCN(S(=O)(=O)c3ccccc3)CC2)N1CC1CC1 | -12.5
CCN1C(=O)CCC12CCCN(S(=O)(=O)c1cccc(C)c1)CC2 (stereo not given) | -2.78
CCCS(=O)(=O)N1CCC2(CCCC(=O)N2C)CC1 | -9.65
O=C(C1CCOCC1)N1CCC2(CCC(C(=O)N3CCCC3)O2)CC1 (stereo not given) | -6.14
CCS(=O)(=O)N1CCCC2(CCCC(=O)N2C)C1 (stereo not given) | -9.96
CC(=O)N1CC2(CCN(C(=O)c3ccc4c(c3)OCCO4)CC2)C1 | 20.2
O=C(CC(F)(F)F)N1C[C@H]2CN(CC3CC3)C(=O)[C@H]2C1 | -5.1
CC(=O)N1CCOCC2(CCCNC2)C1 (stereo not given) | -9.88
O=C(C[C@@H]1COC[C@H]2CN(Cc3ccsc3)C[C@@H]12)N1CCCC1 | -3.89
CC(=O)N1CCC2(CC1)CN(C(=O)C1CC1)c1ccc(F)cc12 | -0.352
CN(C)C(=O)NC1COC2(CCN(C(=O)c3ccc(Cl)cc3)CC2)C1 (stereo not given) | -8.31
CC(=O)N1C[C@H]2CN(CC3CC3)C(=O)[C@H]2C1 | -0.948
COCCN1C[C@@H]2CN(C(=O)CC3CC3)C[C@@H]2C1=O | -6.26
COCCn1c2c(ccc1=O)CC(N)CC2 (stereo not given) | -0.36
CC(C)Cn1c2c(ccc1=O)CC(N)CC2 (stereo not given) | -3.16
O=C([C@H]1CCCO1)N1Cc2nccn2CC(COc2cccnc2)C1 (stereo not given in full) | -4.93
O=C(N1CCOCC1)N1CCC2(CCNC2)C1 (stereo not given) | -3.15
CS(=O)(=O)NCc1cncc2c1CCN(C(=O)N1CCCC1)C2 | 11.1

Compound | cytotoxicity at 70.5 h [%]
O=C(NC[C@H]1OC[C@@H](NC2CCNCC2)[C@@H]1O)C1CCCC1 | -5.05
CN(C)C[C@@H]1CCC[C@@H]2CN(c3nccc(C(F)(F)F)n3)C[C@@H]21 | 23.3
CCN1CCC2(CN(C(=O)N(C)C)CC23CCN(CC2CC2)CC3)C1=O (stereo not given) | 18.4
CCN1CCC2(CN(C(C)=O)CC23CCN(CC2CC2)CC3)C1=O (stereo not given) | -5.77
Cc1cnc(N2CCC3(CCCCN3C)C2)nc1 (stereo not given) | -7.87
CN(C)C(=O)CN1CC[C@H]2CN(C3CCOCC3)C[C@@H]2C1=O | -4.31
CC(=O)N1CCC2(CC1)CN(CC(C)C)CC21CCNC1=O (stereo not given) | 13.6
Cc1ccc(CN2CCC[C@@H]3CN(C(=O)c4ccco4)C[C@@H]32)o1 | -9.58
O=C1CC[C@]2(CC[C@@H](NC3CCOCC3)CC2)N1Cc1ccccc1 | -2.63
COCCN1CCC2(CC1)CN(C(=O)C1CC1)c1ccc(F)cc12 | -3.73
CN(C)C1COC2(CCN(C(=O)c3cccc(Cl)c3)CC2)C1 (stereo not given) | -9.63
O=C(C[C@H]1[C@H]2CN(Cc3ccc(F)cc3)C[C@@H]12)N1CCCC1 | -3.22
COc1ccc(CN2C[C@@H]3[C@H](CC(=O)N4CCCC4)[C@@H]3C2)cc1 | -9.32
CNC(=O)CN1CC[C@H]2CN(C(=O)c3ccc(C)nc3)C[C@H]2C1 | -1.44
CC(C)CCN1CCc2[nH]nc(C(=O)N3CCCC3C)c2C1 (stereo not given) | -6.21
O=C(NC1CC1)N1CCCC2(CCCCN2)C1 (stereo not given) | -5.05
O=C(c1ccco1)N1C[C@@H]2OCCN(c3ncccn3)[C@@H]2C1 | -13.6
O=C(c1ccc(O)cc1)N1C[C@@H]2OCCN(c3ncccn3)[C@@H]2C1 | -10.7
CN(C)C(=O)N1CCC[C@]2(C(=O)N(C)C)CN(c3ccccn3)C[C@@H]2C1 | -10.5
Cn1cc(N2C(=O)CC[C@@H]3[C@H]2CCN3Cc2nccs2)cn1 | -11.9
c1cc(CN2CCC3(CC2)CC(N2CCCC2)CO3)co1 (stereo not given) | -5.63
CN(C)C(=O)[C@]12CCCN(CC3CC3)C[C@H]1CN(c1ccccn1)C2 | -8.29
COCC1c2c(cnn2CC2CC2)CCN1Cc1cc(C)on1 (stereo not given) | -12.7
CN(Cc1ccncc1)C1COC2(CCN(Cc3cccs3)CC2)C1 (stereo not given) | -12.7
